Patent publication US6686369B1, “α-hydrdroxylic acid derivatives, their production and use” (Abbott GmbH & Co., KG, priority 1996, dated 2004)

Experiments:
[1] = target: T1, cloned human ETA receptor (Homo sapiens, UniProt P25101); assay: ETA receptor binding assay ([125I]-ET1, membranes of ETA receptor-expressing CHO cells); details: CHO cell membranes, 25 pM [125I]-ET1, 25° C.
T1 construct: expressed in transfected cells; host or cells: CHO cells
T1 sequence (P25101 21-427): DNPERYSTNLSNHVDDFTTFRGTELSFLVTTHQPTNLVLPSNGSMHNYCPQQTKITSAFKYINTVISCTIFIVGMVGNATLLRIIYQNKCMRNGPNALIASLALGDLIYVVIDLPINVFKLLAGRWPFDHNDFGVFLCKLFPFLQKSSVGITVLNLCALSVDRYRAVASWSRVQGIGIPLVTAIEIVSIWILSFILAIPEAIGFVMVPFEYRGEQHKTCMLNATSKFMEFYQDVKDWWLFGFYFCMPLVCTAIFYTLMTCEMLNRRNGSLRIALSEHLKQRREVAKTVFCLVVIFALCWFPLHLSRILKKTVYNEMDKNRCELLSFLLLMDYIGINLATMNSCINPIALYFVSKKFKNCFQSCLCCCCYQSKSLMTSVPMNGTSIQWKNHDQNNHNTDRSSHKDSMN
Description: (§1) For binding studies, cloned human ETA receptor-expressing CHO cells and guinea-pig cerebellar membranes with >60% ETB relative to ETA receptors were employed.
The ETA receptor-expressing CHO cells were grown in F12 medium with 10% fetal calf serum, 1% glutamine, 100 U/ml penicillin and 0.2% streptomycin (Gibco BRL, Gaithersburg, Md., USA). After 48 h, the cells were washed with PBS and incubated with 0.05% trypsin-containing PBS for 5 min. After neutralization with F12 medium, the cells were collected by centrifugation at 300×g. For cell lysis, the pellet was briefly washed with lysis buffer (5 mM Tris-HCl, pH 7.4 with 10% glycerol) and then incubated at a concentration of 10^7 cells/ml of lysis buffer at 4° C. for 30 min. The membranes were centrifuged at 20,000×g for 10 min, and the pellet was stored in liquid nitrogen.
(§2) For the ETA and ETB receptor binding assays, the membranes were suspended in incubation buffer (50 mM Tris-HCl, pH 7.4 with 5 mM MnCl2, 40 μg/ml bacitracin and 0.2% BSA) at a concentration of 50 μg of protein per assay mixture and incubated at 25° C. with 25 pM [125I [sic]]-ET1 (ETA receptor assay) or 25 pM [125I [sic]]-RZ3 (ETB receptor assay) in the presence and absence of test substance. The nonspecific binding was determined with 10^−7 M ET1. Filtration through GF/B glass fiber filters (Whatman, England) in a Skatron cell collector (Skatron, Lier, Norway) after 30 min separated the free and the bound radioligand, and the filters were washed with ice-cold Tris-HCl buffer, pH 7.4 with 0.2% BSA. The radioactivity collected on the filters was quantified using a Packard 2200 CA liquid scintillation counter.

ETB receptor = target: T2, ETB receptor (Cavia porcellus, UniProt H0VTF3); assay: ETB receptor binding assay ([125I]-RZ3, guinea-pig cerebellar membranes); details: 25 pM [125I]-RZ3, 25° C.
T2 construct: Guinea-pig cerebella were homogenized in a Potter-Elvejhem homogenizer; from tissue; host or cells: guinea-pig cerebellum membranes
T2 sequence (H0VTF3 27-415): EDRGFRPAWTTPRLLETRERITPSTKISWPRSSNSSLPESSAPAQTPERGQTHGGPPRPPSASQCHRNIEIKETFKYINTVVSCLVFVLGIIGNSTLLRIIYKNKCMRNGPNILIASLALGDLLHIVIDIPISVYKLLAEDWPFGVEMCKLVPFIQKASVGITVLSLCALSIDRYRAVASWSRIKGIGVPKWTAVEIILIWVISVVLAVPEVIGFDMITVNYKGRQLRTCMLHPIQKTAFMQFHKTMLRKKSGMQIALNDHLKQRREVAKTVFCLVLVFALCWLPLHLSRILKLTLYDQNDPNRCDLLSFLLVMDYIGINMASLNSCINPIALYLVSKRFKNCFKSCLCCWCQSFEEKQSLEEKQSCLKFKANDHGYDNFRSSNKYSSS
Description: as §1
Guinea-pig cerebella were homogenized in a Potter-Elvejhem homogenizer and obtained by differential centrifugation at 1000×g for 10 min and repeated centrifugation of the supernatant at 20,000×g for 10 min.
as §2

Compound | Ki [1] [nM] | Ki (ETB receptor) [nM]
COc1cc(C)nc(OC(C(=O)O)C(CO)(c2ccccc2)c2ccccc2)n1 (centres unmarked) [Compound I-20] | 5 | 445
COc1cc(OC)nc(OC(C(=O)O)C(C)(c2ccccc2)c2ccccc2)n1 (centres unmarked) [Compound I-1] | 25 | 950
CCC(c1ccccc1)(c1ccccc1)C(Oc1nc(OC)cc(OC)n1)C(=O)O (centres unmarked) [Compound I-11] | 20 | 1400
CCC(c1ccccc1)(c1ccccc1)C(Oc1nc(C)cc(OC)n1)C(=O)O (centres unmarked) [Compound I-12] | 4 | 250

Further lines, results first:

Ki [1] [nM] | Ki (ETB receptor) [nM] | Compound
3.5 | 290 | COc1cc(C)nc(OC(C(=O)O)C(C)(c2ccccc2)c2ccccc2)n1 (centres unmarked) [Compound I-2]
4 | 540 | CCC(c1ccccc1)(c1ccccc1)C(Oc1nc(C)cc(C)n1)C(=O)O (centres unmarked) [Compound I-15]
4 | 325 | Cc1cc(C)nc(OC(C(=O)O)C(C)(c2ccccc2)c2ccccc2)n1 (racemic) [Compound I-3, 2-(4,6-Dimethyl-2-pyrimidinyloxy)-3,3-diphenylbutyric Acid]
